Source: patent EP0472573B1, “HERBICIDE RESISTANT MAIZE” (ZENECA LIMITED, priority 1989, dated 1990)
pIC50: −log10 of the molar value. Where two headings read alike, the source gives them in different places.

Key:
Type in all cases: biochemical, Zea mays
[1] = target: ALS enzyme extracted from Mutant 5 (heterozygous); experiment: ALS enzyme assay, heterozygous Mutant 5; settings: for pIC50: ALS of heterozygous Mutant 5, read-out: ID50% (the source's name); for resistance group, Enzyme Assay: Mutant 5, groups Strong, Intermediate, Weak, Zero; for Fold Increase: fold increase in resistance vs wild type, heterozygous Mutant 5, 30 min
Protocol: (§1) Seeds of generation M₁BC₁ M₁BC₂ of the nine mutants were sprayed pre-emergence with the herbicide imazethapyr (PURSUIT) (Trade Mark) at a rate of 250 g/ha and grown in a growth chamber (16 hour day, 27°C; 8 hour night, 17°C). Plants were harvested after 11 days.
(§2) Four grams of leaf material were harvested from just above the first leaf axis and ground in a mortar and pestle in 20ml of a solution containing 40mM Tricine (Trade Mark), 10mM EDTA, 5mM pyruvate, 80 »M flavin adenine dinucleotide (FAD), 1mM dithiothreitol (DTT), pH 8, plus 0.8g Polyclar AT. The homogenate was pressed through four layers of muslin and centrifuged at 30,000g for 20 minutes.
(§3) The supernatant was brought to 65% saturation with ammonium sulphate, left to precipitate for 30 minutes and then centrifuged at 30.000g for 20 minutes. The pellet was resuspended in 2.5ml of 40mM Tricine, 10mM EDTA, 5mM pyruvate, 80»M FAD, 25% (v/v) glycerol, 1mM DTT, pH 8, and desalted into 3.5ml of 40mM Tricine, 10mM EDTA, 25% (v/v) glycerol, 1mM DTT, pH 8.
(§4) One hundred microlitres of the enzyme extract was used for each assay. Final reagent concentrations were: 120mM Tricine, 50mM pyruvate, 10mM MgCl₂, […], 93»M thiamine pyrophosphate (TPP), pH 8, in the presence or absence of a herbicide of interest, in a volume of 750 »l. Incubations were carried out at 37°C for 30 minutes. Reactions were stopped with 250»l of 1.84M sulphuric acid, and decarboxylation of the acetolactate carried out at 37°C for 75 minutes, or at 60°C for 30 minutes. Assay blanks had sulphuric acid added prior to the enzyme extract. To the samples and blanks 650»l of α-naphthol in 2.73M NaOH/0.16%(w/v) creatine were added followed by incubation at 37°C for 30 minutes. After centrifugation at 30,000g the optical density of the supernatant was read at 540nm.
(§5) The assay procedure described was carried out on ALS enzyme extracted from each of the nine mutants for the following herbicides: imazethapyr (PURSUIT) imazapyr (ARSENAL) imazaquin (SCEPTER) chlorsulfuron (GLEAN) chlorimuron (CLASSIC) […] (HARMONY) The enzyme activity graphs are given as Figures 3 to 8. In addition, homozygous lines of mutants 1 and 2 which were selected from generation M₁BC₁S₂, were also tested against the same group of herbicides and against representatives of the triazolopyrimidines and phenoxypyrimidines. The chemical structures of these herbicides are shown in Figure 2 of the accompanying drawings.
(§6) From the enzyme assay data it is possible to derive, as a measure of the degree of inhibition the factor ID50% for each mutant and for each herbicide. This factor is indicative of the herbicide concentration which gives 50% inhibition of the ALS activity in comparison with the wild-type control. It is also possible to derive the fold increase in resistance.

[2] = target: ALS enzyme extracted from Mutant 2 (heterozygous); experiment: ALS enzyme assay, heterozygous Mutant 2; settings: for pIC50: ALS of heterozygous Mutant 2, read-out: ID50% (the source's name); for resistance group, Enzyme Assay: Mutant 2, groups Strong, Intermediate, Weak, Zero; for Fold Increase: fold increase in resistance vs wild type, heterozygous Mutant 2, 30 min
Protocol: as §1, §2, §3, §4, §5, §6

[3] = target: ALS enzyme extracted from Mutant 8 (heterozygous); experiment: ALS enzyme assay, heterozygous Mutant 8; settings: for pIC50: ALS of heterozygous Mutant 8, read-out: ID50% (the source's name); for resistance group, Enzyme Assay: Mutant 8, groups Strong, Intermediate, Weak, Zero; for Fold Increase: fold increase in resistance vs wild type, heterozygous Mutant 8, 30 min
Protocol: as §1, §2, §3, §4, §5, §6

[4] = target: ALS extracted from leaves of MUTANT 2 (homozygous); experiment: ALS enzyme assay, homozygous Mutant 2; settings: for pIC50: ALS of homozygous Mutant 2, read-out: ID50% Mutant; for Fold Increase: fold increase in resistance vs wild type, homozygous Mutant 2, 30 min
Protocol: as §2, §3, §4, §5, §6

[5] = target: ALS extracted from leaves of MUTANT 1 (homozygous); experiment: ALS enzyme assay, homozygous Mutant 1; settings: for pIC50: ALS of homozygous Mutant 1, read-out: ID50% Mutant; for Fold Increase: fold increase in resistance vs wild type, homozygous Mutant 1
Protocol: as §2, §3, §4, §5, §6

[6] = target: ALS enzyme extracted from Mutant 3 (heterozygous); experiment: ALS enzyme assay, heterozygous Mutant 3; settings: for pIC50: ALS of heterozygous Mutant 3, read-out: ID50% (the source's name); for resistance group, Enzyme Assay: Mutant 3, groups Strong, Intermediate, Weak, Zero; for Fold Increase: fold increase in resistance vs wild type, heterozygous Mutant 3, 30 min
Protocol: as §1, §2, §3, §4, §5, §6

[7] = target: ALS enzyme extracted from Mutant 10 (heterozygous); experiment: ALS enzyme assay, heterozygous Mutant 10; settings: for pIC50: ALS of heterozygous Mutant 10, read-out: ID50% (the source's name); for resistance group, Enzyme Assay: Mutant 10, groups Strong, Intermediate, Weak, Zero; for Fold Increase: fold increase in resistance vs wild type, heterozygous Mutant 10, 30 min
Protocol: as §1, §2, §3, §4, §5, §6

[8] = target: ALS (acetolactate synthase), Wild type; experiment: ALS enzyme assay, wild-type control; settings: read-out: ID50% (the source's name)
Protocol: as §1, §2, §3, §4, §5, §6

[9] = target: ALS enzyme extracted from Mutant 7 (heterozygous); experiment: ALS enzyme assay, heterozygous Mutant 7; settings: for pIC50: ALS of heterozygous Mutant 7, read-out: ID50% (the source's name); for resistance group, Enzyme Assay: Mutant 7, groups Strong, Intermediate, Weak, Zero; for Fold Increase: fold increase in resistance vs wild type, heterozygous Mutant 7, 30 min
Protocol: as §1, §2, §3, §4, §5, §6

[10] = target: ALS enzyme extracted from Mutant 1 (heterozygous); experiment: ALS enzyme assay, heterozygous Mutant 1; settings: for pIC50: ALS of heterozygous Mutant 1, read-out: ID50% (the source's name); for resistance group, Enzyme Assay: Mutant 1, groups Strong, Intermediate, Weak, Zero; for Fold Increase: fold increase in resistance vs wild type, heterozygous Mutant 1, 30 min
Protocol: as §1, §2, §3, §4, §5, §6

[11] = target: ALS enzyme extracted from Mutant 9 (heterozygous); experiment: ALS enzyme assay, heterozygous Mutant 9; settings: for pIC50: ALS of heterozygous Mutant 9, read-out: ID50% (the source's name); for resistance group, Enzyme Assay: Mutant 9, groups Strong, Intermediate, Weak, Zero; for Fold Increase: fold increase in resistance vs wild type, heterozygous Mutant 9, 30 min
Protocol: as §1, §2, §3, §4, §5, §6

[12] = target: ALS enzyme extracted from Mutant 6 (heterozygous); experiment: ALS enzyme assay, heterozygous Mutant 6; settings: for pIC50: ALS of heterozygous Mutant 6, read-out: ID50% (the source's name); for resistance group, Enzyme Assay: Mutant 6, groups Strong, Intermediate, Weak, Zero; for Fold Increase: fold increase in resistance vs wild type, heterozygous Mutant 6, 30 min
Protocol: as §1, §2, §3, §4, §5, §6

| Structure (SMILES) | pIC50 [1] | resistance group, Enzyme Assay [1] | Fold Increase [1] | pIC50 [2] | resistance group, Enzyme Assay [2] | Fold Increase [2] | pIC50 [3] | resistance group, Enzyme Assay [3] | Fold Increase [3] | pIC50 [4] | Fold Increase [4] | pIC50 [5] | pIC50 [6] | resistance group, Enzyme Assay [6] | Fold Increase [6] | pIC50 [7] | resistance group, Enzyme Assay [7] | Fold Increase [7] | pIC50 [9] | resistance group, Enzyme Assay [9] | also measured |
| --- | --- | --- | --- | --- | --- | --- | --- | --- | --- | --- | --- | --- | --- | --- | --- | --- | --- | --- | --- | --- | --- |
| CC(C)C1(C)N=C(c2ncccc2C(=O)O)NC1=O (stereo not shown) [Imazapyr, imazapyr] | 3.52 | Strong | 100 | 3.27 | Strong | 180 | < 3.00 | Strong | >333 | 3.17 | 225 | < 3.00 | 5.40 | Weak | 1 | 4.46 | Strong | 12 | 5.00 | Intermediate | Fold Increase ([5]; 30 min): >333; pIC50 ([8]; herbicide concentration giving 50% inhibition of ALS activity): 5.52; Fold Increase [9]: 3; pIC50 [10]: < 3.00; resistance group, Enzyme Assay [10]: Strong; Fold Increase [10]: >333; pIC50 [11]: < 3.00; resistance group, Enzyme Assay [11]: Strong; Fold Increase [11]: >333; pIC50 [12]: 5.30; resistance group, Enzyme Assay [12]: Intermediate; Fold Increase [12]: 2 |
| COC(=O)c1sccc1S(=O)(=O)NC(=O)Nc1nc(C)nc(OC)n1 [Thiacarburon, thiacarburon] | 6.47 | Intermediate | 8 | 6.49 | Intermediate | 8 | 7.40 | Weak | 1 | 6.44 | 8.5 | 7.40 | 7.07 | Weak | 2 | 6.41 | Intermediate | 9 | 7.60 | Zero | Fold Increase [5]: nil; pIC50 [8]: 7.37; Fold Increase [9]: 1; pIC50 [10]: 7.26; resistance group, Enzyme Assay [10]: Weak; Fold Increase [10]: 1; pIC50 [11]: 7.35; resistance group, Enzyme Assay [11]: Weak; Fold Increase [11]: 1; pIC50 [12]: 7.35; resistance group, Enzyme Assay [12]: Weak; Fold Increase [12]: 1 |
